Source: patent US10849960B2 (priority 2017, dated 2020)

Key:
Format in all cases: cell-based, human
A2780 cells = experiment: Chemical inhibition of Jak signaling, cytotoxicity assay; details: inhibitor 10 μM, 2 hours before
Method: (§1) FIGS. 7A-7D: Chemical inhibition of Jak signaling. OVCAR-5 cells (FIGS. 7A-7B) or A2780 cells (FIGS. 7C-7D) were treated with either ruxolitinib or tofacitinib for 2 hours at a final concentration of 10 μm before different concentrations of IFNs, IL4-PE or the combination of each were added. Percent viability was measured after 3 days in culture.
(§2) Cell lines were seeded at 10^4 cells/well in a 96-well plate in 100 μL of media and incubated until adherence (4 hr, 37° C., 5% CO2). Serial dilutions of IL4-PE, IFN-α2a, or IFN-γ were added and incubated for three days. IFNs were diluted using serial dilutions in cRPMI to obtain a final concentration of 200 ng/mL of both IFN-α2a or IFN-γ. For ruxolitinib and tofacitinib studies, 10 μM (final concentration) was added to the plates and incubated at 37° C. for 2 hours before IFNs or IL4-PE was added. The media was then removed, and cell viability was determined by crystal violet dye uptake in fixed, live cells. Crystal violet is a triarylmethane dye that binds to ribose type molecules such as DNA in nuclei. The dye staining is directly proportional to the cell biomass. Dye absorbance was measured at 570 nm using a spectrophotometer.

OVCAR-5 cells = experiment: as above; details: inhibitor 10 μM, 2 hours before, 20/4 and 200/40 ng/mL IFNs/IL4-PE, 3 days
Method: as §1, §2

STAT1 = experiment: Western blot for phosphorylated STAT1; details: OVCAR-5 and A2780 cell lines; 20 minutes
Method: FIGS. 6A-6B: Western blot analysis of IFN and IL4-PE STAT activation. (FIG. 6A) Western blots for phosphorylated STAT1 in OVCAR-5 and A2780 cells stimulated with IFNα2a, IFNγ, IL4-PE, or all three agents for 20 minutes at the highest concentrations from FIGS. 1A-1B (representative of three separate experiments). (FIG. 6B) Western blots for phosphorylated STAT6 in OVCAR-5 and A2780 cells stimulated with IFNα2a, IFN, IL4-PE, or all three agents for 20 minutes (representative of three separate experiments). P38 protein kinase was used as a loading control.
Cell pellets were snap-frozen and stored at −80° C. Pellets were thawed and lysed with MPER buffer supplemented with protease inhibitors. Cell lysates were centrifuged at 13,000 RPM at 4° C. for 20 minutes to clarify the lysate. The clarified lysate was removed and placed in a new vial. The protein concentration was measured using a NANODROP® Spectrophotometer (LIFE TECHNOLOGIES®, Wilmington, Del.). The lysate was mixed with reducing loading buffer (LIFE TECHNOLOGIES®, Waltham Mass.) and heated at 90° C. for 10 minutes. The samples were allowed to cool and were either used immediately or stored at 4° C. for future analysis. The samples were analyzed using 10% Bis-Tris gels and then transferred to nitrocellulose membranes per the manufacturer's directions. […]

C[C@@H]1CCN(C(=O)CC#N)C[C@@H]1N(C)c1ncnc2[nH]ccc12 [Tofacitinib, tofacitinib]
effect on IFN signaling / IFN-mediated killing (A2780 cells): blocked
effect on IFN- and IFNs and IL4-PE-mediated cell death / IFN signaling (OVCAR-5 cells): dose-dependent blocking of IFN signaling

IFNγ: IFN-γ purchased from INTERMUNE Pharmaceutical Inc.
STAT1 phosphorylation (STAT1): induced

B1: IFNα: human IFN-α2a, gift of Hoffmann LaRoche (protein)
chain: MARPFAFLMVLVVISYWSTCSLGCDLPQTHNLRNKKILTLLAQMRRLSPLSCLKDRKDFGFPQEKVDAQQIQEAQAIPVLSELTQQILTLFTSKDSSAAWNATLLDSFCTGLHQLLNDLQGCLMQLVGMKELPLTQEDSQLAMKKYFHRITVYLREKKHSPCAWEVVRAEVWRALSSSVNLLARLSEEKE
modifications: Mouse
notes: human IFN-α2a, gift of Hoffmann LaRoche
STAT1 phosphorylation (STAT1): induced
